Assay results reported in a melting point compilation (Tetko et al.; mined from patent text by program, amines drawn as free bases though some values may be those of a salt).

SMILES	melting point [°C]
COc1ccc(N(CCCC(=O)O)C(=O)CCN(C(C)=O)c2c(C)cccc2C)cc1	90 to 92
CCCC=Cc1c(C(C)C)nc(C(C)C)c(CO)c1-c1ccc(Cl)c(Cl)c1	46 to 48
O=C1CC2CCc3ccc(F)cc3C2=NN1c1ccc(OCC2CO2)cc1 (centres undefined)	128 to 130
O=C(O)c1cc(O)c(C(=O)c2ccc(Cl)cc2)c([N+](=O)[O-])c1	266 to 268
CC(C)n1c(N2CCN(C)CC2)nc2cc(Cl)c(N)cc21	192 to 193
CCCCCCCCCCNC(=O)c1cc(C(=O)NCCCCCCCCCC)cc(N(CC(=O)O)CC(=O)O)c1	164 to 167
COC(=O)N(C)c1cccc(C(=O)C=CN(C)C)c1	93 to 95
O=C(c1ccc(Oc2ccc(Oc3ccc(C(=O)C(Cl)(Cl)Cl)cc3)cc2)cc1)C(Cl)(Cl)Cl	215 to 217
CN1CC(=O)Nc2ccncc2C1=O	267 to 268
CC1=Cc2ccsc2Sc2ccccc21	70 to 71
COc1cc2[nH]nc(S(C)=O)c(=O)c2cc1OC (centres undefined)	303
CC(=O)Oc1cc2c(cc1C(C)(C)CC(C)(C)C)OC(C)(COc1ccc([N+](=O)[O-])cc1)CC2=O (centres undefined)	166 to 167
O=C1CC(c2ccc(O)cc2)Oc2cc(O)c(C3OC(CO)C(O)C(O)C3O)c(O)c21 (centres undefined)	195 to 196
O=C(COC(=O)c1nocc1Br)NCCO[N+](=O)[O-]	98 to 99
Cc1c(-c2ccccc2)oc2c(C(=O)NCCCN3CCC(C(=O)c4ccc(F)cc4)CC3)cccc2c1=O	181 to 183
CCC[C@H]1C(=O)N(S(=O)(=O)c2ccc3ccccc3c2)[C@H]2CCN(S(C)(=O)=O)[C@H]12 (relative stereo)	257 to 260
COc1ccc2nc(C(F)(F)F)c(C(=O)Nc3nccs3)c(O)c2c1	> 270
Nc1nc2c(sc(=O)n2Cc2ccc(Cl)cc2)c(=O)[nH]1	> 320
CS(=O)CCCn1cnc(-c2ccc(F)cc2)c1-c1ccncc1 (racemic)	122 to 123
COc1ccc(Cl)cc1C1(F)C(=O)Nc2c(C(F)(F)F)cccc21 (centres undefined)	230 to 233
CCCCCCCCCCCCCCOc1cccc(CC(=O)Nc2ccccc2CBr)c1	103 to 106
COP(=O)(OC)C1OC(=O)c2ccccc21 (centres undefined)	95 to 96.5

SMILES	melting point [°C]
COC(=O)c1ccccc1Cc1cc2cc(Cl)ccc2n1S(=O)(=O)c1ccc2c(c1)C(C)(C)CO2	160
CC(C)(C)c1ncc(C=O)cn1	82 to 83
O=C1C2CCCCC2C(=O)N1CCOC(OCCN1C(=O)C2CCCCC2C1=O)(C(=O)c1ccccc1)c1ccccc1 (centres undefined)	115 to 116
CCOC(=O)Cc1sc(Sc2nccc(C)c2C(=O)OCC)nc1C	85 to 87
Cc1ccc(S(=O)(=O)OCC2Cc3cc(Cl)cc(-c4cccc(Cl)c4)c3O2)cc1 (centres undefined)	80 to 82
COc1cc2c(cc1OCc1ccccc1)C(Sc1ccc(Cl)cc1)(C(N)=CC(=O)OC(C)(C)C)C2 (centres undefined)	112 to 115
FC(F)(F)c1nnc(-c2ccc(Cl)cc2)n1-c1ccc(Cl)cc1	184
CC(C)C(C(=O)O)c1cc(Cl)c(O)c(Cl)c1 (centres undefined)	152 to 154
O=C(CSCCCCOc1ccccc1)NNC(=O)c1ccc(O)cc1	113 to 115
CC(CCCc1ccccc1)c1cc2c(cc1O)C1C(=O)CCCC1C(C)(C)O2 (centres undefined)	108 to 115
Nc1nc(CCc2ccccc2)nc2nc(-c3ccco3)nn12	235 to 237
Cc1c(F)c(N2CCNCC2)c(Cl)c2c1c(=O)c(C(=O)O)cn2C1CC1	234 to 235
Cc1ccccc1NC(=O)N(C)C	139 to 143
O=C(O)c1cc(-n2c(-c3ccc(F)cc3)cc3c2CCCC3)ccc1O	239 to 240
COC(c1ccc(NC(=O)c2c(C)nn(C)c2C)c(C(C)CC(C)C)c1)(C(F)(F)F)C(F)(F)F (centres undefined)	94 to 96
COc1cc2[nH]c(=O)c3ccccc3c2cc1OC	253 to 255
O=S(=O)(c1ccccc1)n1c2ccc(Br)cc2c2c(Cl)ccnc21	212 to 214
CS(=O)(=O)c1ccc(-c2cnn(CC(F)(F)F)c(=O)c2Cl)cc1	221 to 222
CC1(C)CCC(C)(C)c2cc(-c3cc4ccc(C(=O)O)cc4s3)ccc21	297
CCOC(=O)c1c(CCCCn2cncn2)nc2sc3c(c2c1-c1ccc(OC)c(OC)c1)CCN(C(=O)c1ccc(Cl)cc1)C3	165 to 166
CCCn1cnc2cc(CN3CCN(C(c4ccccc4)c4ccccc4)CC3)ccc21	155
Oc1nc(-c2cccnc2)sc1-c1ccccc1	273 to 276

The remaining lines, values ahead:

melting point [°C]	SMILES
96 to 98	O=CC1CCc2[nH]c3ccc(F)cc3c2C1 (centres undefined)
93 to 95	CC(C)(O)CCCCCc1cccc(C=Cc2ccc(CO)c(CO)c2)c1
164 to 168	ClC1=NCc2ccccc2SC1
221	O=C(Cc1cc(F)cc(F)c1)Nc1cccc2nc(N[C@@H]3CCc4ccccc43)ccc12
228 to 230	CC(C)(C)c1ccc(Nc2cccc3c2C(=O)N(C2CCC(=O)NC2=O)C3=O)cc1 (centres undefined)
184 to 185	CS(=O)(=O)c1ccc(-c2c(-c3ccc(F)cc3)nc3sccn23)cc1
95 to 100	NC1=NC(c2ccc(OC(F)(F)F)cc2)(c2cccc(-c3cccnc3F)c2)C2=NCCN12 (centres undefined)
223 to 225	O=C(OCC1OC(n2ccc(=O)[nH]c2=O)CC1OC(=O)c1ccccc1)c1ccccc1 (centres undefined)
136 to 138	CC(=O)N1CCC(c2nn(-c3ccccc3)c3cc(Br)ccc23)CC1
178 to 179	O=CN(O)C(CS(=O)(=O)c1ccc(Oc2ccc(OC(F)(F)F)cc2)cc1)CS(=O)(=O)N1CCC2(CC1)OCCO2 (centres undefined)
144 to 148	COCCc1nc2c(N)nc3cc(OCc4ccccc4)ccc3c2n1CCCCNS(C)(=O)=O
204	COc1ccc(C(=O)C=Cc2ccccc2)cc1C=CC(=O)O
297	NS(=O)(=O)c1cccc(-c2noc(-c3cnc4c(C(F)(F)F)cc(-c5ccc(C(F)(F)F)cc5)cn34)n2)c1
173	O=C(CN1CCN(C(c2ccc(F)cc2)c2ccc(F)cc2)CC1)Nc1cccc2ccccc12
118 to 119	CCOCc1cc2cc(Br)ccc2oc1=O
253 to 255	O=[N+]([O-])c1ccc2nc3c4ccccc4c4ccccc4c3nc2c1
117 to 119	CCN(CC)c1ccc(C2(c3ccc(N(C)C)cc3)OC(=O)c3ccccc32)c(N(CC)CC)c1 (centres undefined)
209	COc1ccc(C2CC(C(C)(C)C)=NN2c2ccc(C(=O)O)cc2)cc1 (centres undefined)
139 to 140	COc1ccc(C)cc1NC(=O)Nc1ccc(N2CCN(C(=O)Nc3c(CO)cccc3C(F)(F)F)CC2)cc1
138 to 141	C1=C2NCCCN2C(c2ccccc2)c2ccccc2C1 (centres undefined)
171 to 173	O=c1c(-c2cccc(C(F)(F)F)c2)c[nH]n1-c1ccc(F)cc1
77 to 77.5	Cc1noc(CC(N)=O)n1
0	C1COCCOCCNCCOCCOCCOCCN1
104 to 106	C=CCN1C(=O)C2CC2(c2ccc(N)cc2)C1=O (centres undefined)
87 to 88	C=CCNc1nc(NCCOC)nc2c(C)csc12

melting point [°C]	SMILES
165 to 168	CC(C)(C)OC(=O)C1CC(c2ccc(-c3ccc(N4C[C@H](Cn5ccnn5)OC4=O)cc3F)cn2)=NO1 (some centres undefined)
300 to 302	O=C(Nc1ccc(F)cc1)N1CC2C(C1)C2Nc1ncc2cc(-c3ccccc3Cl)c(=O)n(-c3ccc(F)cc3)c2n1 (centres undefined)
190 to 191	Cc1cc(C(F)(F)C(F)(F)C(F)(F)C(F)(F)F)ccc1NC(=O)c1cccc(Br)c1C(=O)NC(C)C
96 to 97	CCOC(=O)CCNC=C(C(=O)OCC)C(=O)c1cc(F)c(F)c(F)c1F
143 to 145	COc1ccc(C(=O)c2c(N)sc3c2CCN(C(=O)c2ccccc2)C3)cc1OC
180 to 181	Cc1ccc(C2c3c(C)c(N4CCN(c5ccc(C(F)(F)F)cc5)CC4)c(C)c(C)c3OC2(C)C)cc1 (centres undefined)
133 to 135	CC(C)(C)OC(=O)c1nc2ccc(NCCCN3CCC(OC(c4ccccc4)c4ccccc4)CC3)nn2n1
154 to 156	COc1ccc2c(c1)c1c(n2Cc2ccccc2)CCCC1C(N)=O (centres undefined)
131 to 136	Nc1c(-c2cc(Cl)ccc2O)nnn1-c1ccc(Cl)cc1Cl
175	O=C(NCc1ccc(F)cc1)c1ccc2nc(N[C@@H]3CCc4ccccc43)ccc2c1
186 to 188	COc1ccc2c(c1)c(Cc1nc(-c3ccc(Cl)cc3)cs1)c(C)n2C(=O)c1ccc(Cl)cc1
107	O=C1CN(c2ccc(Cc3ccccc3)cc2)C(=S)N1Cc1ccccc1
297 to 299	CCCCc1ncc(/C=C2\C(=O)NC(=O)N2Cc2cccs2)n1Cc1ccc(C(=O)O)cc1
91 to 92	COc1cscc1C(=O)NN
112 to 122	CCCCCCCCCCCCCCCCCCOc1ccc2c(c1)C(=O)c1ccc(OCCCCCCCCCCCCCCCCCC)cc1C2=O
193 to 194	O=C(O)CNC(=O)c1sc(Nc2ccccc2)c2c1CCc1cnoc1-2
105 to 108	Cc1ccc(C(=O)c2cccc3c2CCC3=O)cc1
102 to 103	CC(C)(CO)CCCCCCCCCCCC(O)(CC(=O)O)CC(=O)O
193 to 195	C#CCOC(=O)c1cc(-n2c(=O)c3c(n(C)c2=O)CCC3)c(F)cc1Cl
228	CC(=O)Nc1ccc(C(=O)NC2=Nc3cc(N4CCOCC4)ccc3C3=NCCN23)cn1
185 to 187	Cc1cc2nnc(C)n2nc1-c1cccc(C(F)(F)F)c1
192 to 193	O=C1N(Cc2cc3cccc(F)c3o2)c2ccccc2C12COc1cc3c(cc12)CCO3 (centres undefined)
85.5	C1=Cn2ccnc2Cc2ccccc21
166 to 167	C=CCOc1ccc2c(c1C=NO)OCO2
250 to 253	O=C(Nc1ccc(N2CCN(C(=O)Nc3ccc(C(=O)O)cc3Cl)CC2)cc1)Nc1ccccc1F
